Assay results reported in publication PMC3833878, “In Silico Molecular Comparisons of C. elegans and Mammalian Pharmacology Identify Distinct Targets That Regulate Feeding” (PLoS Biology, 2013).

What was measured:
mglur-8 = molecular target: T1, mglur-8 (Rattus norvegicus, UniProt P70579); assay: Cell-based mGluR-8 activity assay, CHO cells stimulated with 1 µM L-AP4, concentration response
T1 construct: expressed in transfected cells; host or cells: CHO cells
Protocol: (§1) Tachykinin, ghrelin, and calcium-sensing receptor activity were measured using a cell-based Ca flux assay by Multispan, Inc. (Hayward, California). Cholescystokinin A and B receptors were assayed for effects on cAMP production, and nicotinic acid receptor activity was measured in a cell-based assay of forskolin-stimulated cAMP production by Multispan, Inc. […], PP2A phosphatase activity assays were performed by CEREP (Celle l'Evescault, France) using PP2A from human erythrocytes. Phospholipase C from Bacillus cereus was assayed by CEREP, Inc. using glycero-phosphatidyl ethanolamine as a substrate, monitoring diacyl glycerol production. Radioligand binding assays for PPAR-α, γ, δ and the androgen receptor were performed by CEREP, Inc. CARNA Biosciences (Kobe, Japan) performed in vitro kinase activity assays using recombinant catalytic domains and measured phosphorylation of an Src-derived peptide for Flt-3 and phosphatidyl inositol for PI3KCA. Radioligand binding assays for the oxytocin receptor, D4 dopamine receptor, cannabinoid CB2 receptor, and angiotensin type I and II receptors were performed as described previously, as were cell-based activity assays for mGluR 1a, 2, 4, 5, 6, and 8 [60]–[62].
(§2) Supplementary file pbio.1001712.s001.tif: Figure S1 Dose-response measurements that validate SEA predictions for GPCRs. […]

MGLUR1a = molecular target: T2, MGLUR1a (Homo sapiens, UniProt Q13255); assay: Cell-based mGluR activity assay; conditions: 10 µM B16
T2 construct: expressed in transfected cells
T2 sequence (Q13255 19-1194): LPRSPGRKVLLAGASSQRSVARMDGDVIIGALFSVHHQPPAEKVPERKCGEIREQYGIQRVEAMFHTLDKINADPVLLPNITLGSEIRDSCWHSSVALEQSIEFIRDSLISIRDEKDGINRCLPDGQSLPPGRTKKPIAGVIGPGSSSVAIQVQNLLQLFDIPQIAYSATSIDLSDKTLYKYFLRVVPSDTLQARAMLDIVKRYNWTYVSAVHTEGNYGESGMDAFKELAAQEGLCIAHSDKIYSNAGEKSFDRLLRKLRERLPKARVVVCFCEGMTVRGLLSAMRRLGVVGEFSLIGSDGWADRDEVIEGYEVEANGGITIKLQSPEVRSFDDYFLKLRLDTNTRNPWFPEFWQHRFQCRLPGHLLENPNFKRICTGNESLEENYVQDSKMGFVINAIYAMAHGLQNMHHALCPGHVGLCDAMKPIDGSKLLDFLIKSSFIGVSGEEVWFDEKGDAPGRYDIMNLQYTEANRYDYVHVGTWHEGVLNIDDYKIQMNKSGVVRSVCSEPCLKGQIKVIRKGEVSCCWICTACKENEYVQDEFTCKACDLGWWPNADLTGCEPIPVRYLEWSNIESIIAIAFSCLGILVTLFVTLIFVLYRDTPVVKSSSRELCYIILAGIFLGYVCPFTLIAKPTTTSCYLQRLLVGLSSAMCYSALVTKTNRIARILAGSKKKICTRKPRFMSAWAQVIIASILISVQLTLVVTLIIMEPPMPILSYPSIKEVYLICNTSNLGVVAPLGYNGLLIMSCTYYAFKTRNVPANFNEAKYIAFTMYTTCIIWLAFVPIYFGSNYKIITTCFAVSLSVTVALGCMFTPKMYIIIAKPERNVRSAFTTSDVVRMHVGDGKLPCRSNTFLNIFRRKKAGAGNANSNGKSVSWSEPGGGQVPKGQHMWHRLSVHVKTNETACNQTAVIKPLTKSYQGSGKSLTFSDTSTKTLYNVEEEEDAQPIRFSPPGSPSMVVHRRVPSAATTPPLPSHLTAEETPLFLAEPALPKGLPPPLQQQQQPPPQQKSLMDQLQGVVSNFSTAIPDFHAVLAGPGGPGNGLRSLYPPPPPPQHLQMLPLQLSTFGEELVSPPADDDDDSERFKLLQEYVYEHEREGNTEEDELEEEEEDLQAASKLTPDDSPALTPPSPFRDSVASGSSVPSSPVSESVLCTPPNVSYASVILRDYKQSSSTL
Protocol: as §1
(§3) Table S2. Activity of 10 µM B16 on human metabotropic glutamate receptors.
(§4) ^a Data are normalized to the maximum response of cells treated with 1 mM glutamate or 0.1 mM AP4 alone.
(§5) ^b Percent difference in maximum activity of cells treated with glutamate or AP4 with B16 vehicle versus concurrent treatment with 10 µM B16.

MGLUR2 = molecular target: T3, MGLUR2 (Homo sapiens, UniProt Q14416); assay: Cell-based mGluR activity assay; conditions: 10 µM B16
T3 construct: expressed in transfected cells
Protocol: as §1, §3, §4, §5

MGLUR4 = molecular target: T4, MGLUR4 (Homo sapiens, UniProt Q14833); assay: Cell-based mGluR activity assay; conditions: 10 µM B16
T4 construct: expressed in transfected cells
T4 sequence (Q14833 33-912): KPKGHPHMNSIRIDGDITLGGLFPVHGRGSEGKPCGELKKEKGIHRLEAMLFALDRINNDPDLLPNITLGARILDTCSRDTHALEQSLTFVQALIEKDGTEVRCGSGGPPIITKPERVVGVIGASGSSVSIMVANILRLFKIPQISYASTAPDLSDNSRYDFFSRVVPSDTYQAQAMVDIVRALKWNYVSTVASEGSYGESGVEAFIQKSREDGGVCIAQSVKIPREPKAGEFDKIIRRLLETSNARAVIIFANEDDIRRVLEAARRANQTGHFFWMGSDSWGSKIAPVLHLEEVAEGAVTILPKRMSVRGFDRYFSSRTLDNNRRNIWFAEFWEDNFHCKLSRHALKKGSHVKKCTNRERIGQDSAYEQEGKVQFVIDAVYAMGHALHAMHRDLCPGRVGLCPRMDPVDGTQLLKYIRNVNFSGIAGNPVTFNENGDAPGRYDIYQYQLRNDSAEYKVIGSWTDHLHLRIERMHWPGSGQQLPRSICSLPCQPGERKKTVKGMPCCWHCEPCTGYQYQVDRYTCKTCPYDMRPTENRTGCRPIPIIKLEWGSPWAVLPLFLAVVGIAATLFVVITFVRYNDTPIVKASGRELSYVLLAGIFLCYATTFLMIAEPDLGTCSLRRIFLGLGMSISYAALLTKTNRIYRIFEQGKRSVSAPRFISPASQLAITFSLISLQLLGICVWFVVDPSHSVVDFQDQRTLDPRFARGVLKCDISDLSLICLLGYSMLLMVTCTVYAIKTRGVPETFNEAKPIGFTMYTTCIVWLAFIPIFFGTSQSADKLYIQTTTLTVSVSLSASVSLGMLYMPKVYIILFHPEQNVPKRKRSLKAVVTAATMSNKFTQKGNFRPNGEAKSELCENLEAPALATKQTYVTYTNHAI
Protocol: as §1, §3, §4, §5

MGLUR5 = molecular target: T5, MGLUR5 (Homo sapiens, UniProt P41594); assay: Cell-based mGluR activity assay
T5 construct: expressed in transfected cells
T5 sequence (P41594 21-1212): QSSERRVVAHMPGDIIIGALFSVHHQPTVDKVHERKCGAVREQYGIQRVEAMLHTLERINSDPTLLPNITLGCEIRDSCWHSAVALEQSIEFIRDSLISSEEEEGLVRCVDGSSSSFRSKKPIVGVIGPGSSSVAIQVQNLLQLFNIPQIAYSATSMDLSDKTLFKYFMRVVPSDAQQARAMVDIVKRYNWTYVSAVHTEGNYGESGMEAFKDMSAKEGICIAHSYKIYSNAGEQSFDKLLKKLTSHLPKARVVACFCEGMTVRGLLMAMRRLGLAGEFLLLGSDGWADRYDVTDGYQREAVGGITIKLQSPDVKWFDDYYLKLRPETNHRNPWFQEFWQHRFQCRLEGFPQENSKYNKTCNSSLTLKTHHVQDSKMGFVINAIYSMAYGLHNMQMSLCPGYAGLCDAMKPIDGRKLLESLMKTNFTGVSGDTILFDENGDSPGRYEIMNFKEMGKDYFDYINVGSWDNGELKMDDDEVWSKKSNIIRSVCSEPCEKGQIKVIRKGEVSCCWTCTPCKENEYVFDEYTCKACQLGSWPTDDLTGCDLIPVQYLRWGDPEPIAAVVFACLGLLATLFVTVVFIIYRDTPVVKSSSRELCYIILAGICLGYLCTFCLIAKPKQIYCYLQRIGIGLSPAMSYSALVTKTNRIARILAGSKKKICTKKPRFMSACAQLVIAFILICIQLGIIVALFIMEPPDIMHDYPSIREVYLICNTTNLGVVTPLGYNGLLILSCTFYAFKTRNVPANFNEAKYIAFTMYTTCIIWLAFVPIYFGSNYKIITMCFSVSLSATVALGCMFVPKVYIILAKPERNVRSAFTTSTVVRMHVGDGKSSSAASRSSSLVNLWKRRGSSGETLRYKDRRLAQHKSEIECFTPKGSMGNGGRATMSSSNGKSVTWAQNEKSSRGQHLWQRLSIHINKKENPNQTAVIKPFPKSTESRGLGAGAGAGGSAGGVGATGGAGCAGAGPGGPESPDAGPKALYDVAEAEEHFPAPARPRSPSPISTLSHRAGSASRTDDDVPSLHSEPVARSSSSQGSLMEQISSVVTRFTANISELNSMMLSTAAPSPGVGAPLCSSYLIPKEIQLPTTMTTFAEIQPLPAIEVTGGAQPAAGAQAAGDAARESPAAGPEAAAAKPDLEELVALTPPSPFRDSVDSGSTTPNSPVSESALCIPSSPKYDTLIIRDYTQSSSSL
Protocol: as §1, §3, §4, §5

MGLUR6 = molecular target: T6, MGLUR6 (Homo sapiens, UniProt O15303); assay: Cell-based mGluR activity assay; conditions: 10 µM B16
T6 construct: expressed in transfected cells
T6 sequence (O15303 25-877): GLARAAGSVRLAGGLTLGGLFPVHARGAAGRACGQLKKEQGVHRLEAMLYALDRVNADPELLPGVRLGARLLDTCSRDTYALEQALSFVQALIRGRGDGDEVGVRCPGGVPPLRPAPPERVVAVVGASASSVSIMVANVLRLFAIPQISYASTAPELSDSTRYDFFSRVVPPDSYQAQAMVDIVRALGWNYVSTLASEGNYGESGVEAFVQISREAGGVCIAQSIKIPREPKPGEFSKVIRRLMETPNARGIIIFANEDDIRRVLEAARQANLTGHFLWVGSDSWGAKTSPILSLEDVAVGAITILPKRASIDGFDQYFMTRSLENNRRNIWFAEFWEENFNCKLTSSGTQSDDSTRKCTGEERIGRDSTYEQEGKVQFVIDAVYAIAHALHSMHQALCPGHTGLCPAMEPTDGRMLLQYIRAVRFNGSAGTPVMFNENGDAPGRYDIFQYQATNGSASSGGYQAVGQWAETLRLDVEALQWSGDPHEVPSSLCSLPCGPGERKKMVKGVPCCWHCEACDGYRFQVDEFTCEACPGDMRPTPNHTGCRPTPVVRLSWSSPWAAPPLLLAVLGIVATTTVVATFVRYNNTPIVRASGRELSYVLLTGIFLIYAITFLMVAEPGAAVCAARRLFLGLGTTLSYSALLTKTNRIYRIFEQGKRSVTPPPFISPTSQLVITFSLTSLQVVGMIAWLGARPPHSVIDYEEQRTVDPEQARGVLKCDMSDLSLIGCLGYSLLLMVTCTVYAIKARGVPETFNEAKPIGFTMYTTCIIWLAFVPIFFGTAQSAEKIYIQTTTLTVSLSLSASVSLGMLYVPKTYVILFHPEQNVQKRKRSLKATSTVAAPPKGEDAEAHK
Protocol: as §1, §3, §4, §5

MGLUR8 = assay: Cell-based mGluR activity assay; design: species or system human; conditions: 10 µM B16
Protocol: as §1
Table S2. Activity of 10 µM B16 on human metabotropic glutamate receptors. […]

wild-type C. elegans = assay: Pharyngeal pumping assay; format: in vivo; conditions: for increase in pharyngeal pumping / exposure time after which the feeding elevating effect was notable: 10 µM; for increase in pharyngeal pumping: cultured 3 d from L1, long-term video (60 s) and short-term manual (10 s) measurements; for exposure time after which the feeding elevating effect was notable: naïve day 1 gravid adults; for effect on the pharyngeal pumping rate: 10 µM versus 0.1% DMSO; for EC50: Caenorhabditis elegans, read-out: EC50 of the dose-dependent increase in the pharyngeal pumping rate
Protocol: (§6) Compounds at 1,000× stock concentrations (0.1–10 mM) in DMSO or an equal volume of DMSO were diluted in a suspension of E. coli OP-50 (100 µl of a 3× concentrated overnight culture in LB broth) and absorbed as a single drop onto 3.5 cm plates containing 2.5 ml of NGM agar forming a well-defined lawn of bacteria. For developmental exposures, 20–30 synchronized first larval stage C. elegans derived from alkaline hypochlorite treatment of gravid adults were applied to the preseeded plates and cultured until assay at mid-L4 stage (2 d, 20°C) or as day 1 gravid adults (3 d, 20°C). For naïve adult exposures, synchronized first larval stage animals were cultured on NGM-agar plates seeded with E. coli OP-50 for 3 d at 20°C, then transferred to assay plates, and pumping was assayed 1 to 16 h later. Comparisons between vehicle-treated and compound-treated animals were always performed between animals at the same developmental stage and same exposure time. Pharyngeal pumping was counted by live observation at 115–200× magnification using a stereo microscope and recorded at 10 s intervals using a manually controlled digital cell counter. Alternatively, C. elegans pumping was recorded for longer intervals (30–60 s) using bright-field time-lapse microscopy at 120× magnification with a 20 images per second acquisition rate. The resulting movies were analyzed manually at a playback rate of 10 images per second.
(§7) Significance was determined by one-way ANOVA applying a Dunnett's posttest when comparing multiple treatments to a single control and a Bonferroni posttest when comparing the more than two treatments against one another. For pairwise nonrepeated measured comparisons, a student's t test was used. To express data as a percentage of control, the pumping rates of compound-treated animals were divided by the mean pumping rate of the DMSO-treated wild-type animals measured in the same experiment, unless indicated otherwise. Error bars on the control samples indicate the variation around that mean, which is utilized in all statistical calculations.

[1] = test system: mgl-2(tm355) mutant C. elegans; assay: Pharyngeal pumping assay, compound on high-feeding mutant; format: in vivo; conditions: to C. elegans mgl-2 (F45H11.4), homolog of human mGluR-8
Protocol: as §6, §7
(§8) The pumping rates are expressed as a percentage of the mutant’s pumping rate on DMSO, the vehicle control. p-values were calculated relative to DMSO treatment of each mutant by one-way ANOVA using Dunnett’s multiple comparison test.

C. elegans = test system: C. elegans; design: method as in earlier work; conditions: earlier phenotypic screen ref 11; cited from earlier work
flt-3 receptor (CD135) = molecular target: T7, flt-3 receptor (CD135) (Homo sapiens, UniProt P36888); assay: In vitro kinase activity assay, recombinant Flt-3 receptor catalytic domain, srctide phosphorylation (CARNA); format: biochemical
T7 construct: Flt-3 receptor catalytic domain (amino acids 564–993); purchased CARNA Biosciences (Kobe, Japan)
T7 sequence (P36888 564-993): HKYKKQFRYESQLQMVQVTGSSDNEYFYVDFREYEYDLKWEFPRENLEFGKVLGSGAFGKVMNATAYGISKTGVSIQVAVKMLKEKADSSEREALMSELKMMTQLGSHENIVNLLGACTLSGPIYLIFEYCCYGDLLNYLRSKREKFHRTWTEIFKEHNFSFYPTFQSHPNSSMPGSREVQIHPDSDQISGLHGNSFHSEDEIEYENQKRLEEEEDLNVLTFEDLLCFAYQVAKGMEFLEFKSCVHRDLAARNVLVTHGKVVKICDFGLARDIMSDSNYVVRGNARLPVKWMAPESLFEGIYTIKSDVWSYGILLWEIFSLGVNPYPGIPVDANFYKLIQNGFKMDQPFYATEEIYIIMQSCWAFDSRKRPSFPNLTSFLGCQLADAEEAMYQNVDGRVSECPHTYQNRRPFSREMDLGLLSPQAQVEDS
Protocol: as §1, with “Radioligand binding assays for the oxytocin receptor, D4 dopamine receptor, cannabinoid CB2 receptor, and angiotensin type I and II receptors were performed as described previously, as were cell-based activity assays for mGluR 1a, 2, 4, 5, 6, and 8 [60]–[62].” left out
(§9) Supplementary file pbio.1001712.s002.tif: Figure S2 Dose-dependent inhibitory activity for compounds predicted by SEA to inhibit kinases. (A–B) Varying concentrations of J6 and L10 were incubated with full-length recombinant human PI3KCA and ATP (50 µM) for 5 h and the phosphorylation level of the substrate phosphatidylinositol was measured. […]

[2] = test system: ver-3(ok891) mutant C. elegans; assay: Pharyngeal pumping assay, compound on high-feeding mutant; format: in vivo; conditions: to C. elegans ver-3 (F59F3.1), homolog of human Flt-3 receptor
Protocol: as §6, §7, §8

oxytocin receptor = oxytocin receptor (Homo sapiens, UniProt P30559); assay: Radioligand binding assay, 3H-oxytocin binding to the oxytocin receptor
Protocol: as §1, §2

[3] = test system: gnrr-1(ok238) mutant C. elegans; assay: Pharyngeal pumping assay, compound on high-feeding mutant; format: in vivo; conditions: to C. elegans gnrr-1 (F54D7.3), homolog of human Oxtr
Protocol: as §6, §7, §8

androgen receptor = androgen receptor (Homo sapiens, UniProt P10275); assay: Radioligand binding assay, 3H-Mibolerone binding to the androgen receptor (CEREP)
Protocol: as §1, with “[60]-[62]. Supplementary file pbio.1001712.s003.tif: Figure S3 Dose-response relationships for compounds that bind nuclear hormone receptors. […]” for “[60]–[62].”

dopamine receptor D4 = dopamine receptor D4 (Homo sapiens, UniProt P21917); assay: Radioligand binding assay, 3H-risperidone binding to the dopamine D4 receptor
Sequence of dopamine receptor D4 (P21917 whole entry): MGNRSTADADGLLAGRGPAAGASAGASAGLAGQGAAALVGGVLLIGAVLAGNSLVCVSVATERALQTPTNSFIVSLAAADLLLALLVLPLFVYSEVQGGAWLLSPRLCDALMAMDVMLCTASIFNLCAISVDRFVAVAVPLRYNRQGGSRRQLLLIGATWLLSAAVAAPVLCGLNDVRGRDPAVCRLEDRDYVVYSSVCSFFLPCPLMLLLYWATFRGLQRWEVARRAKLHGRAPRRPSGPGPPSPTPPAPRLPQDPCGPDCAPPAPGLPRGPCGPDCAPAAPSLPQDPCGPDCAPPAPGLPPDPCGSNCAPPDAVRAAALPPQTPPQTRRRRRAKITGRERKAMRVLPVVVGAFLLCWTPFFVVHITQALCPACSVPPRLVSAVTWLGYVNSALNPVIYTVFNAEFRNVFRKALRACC
Protocol: as §1, §2

PPAR-γ = molecular target: T8, PPAR-γ (Homo sapiens, UniProt P37231); assay: Radioligand binding assay, 3H-Rosiglitazone binding to PPAR-γ (CEREP)
T8 construct: CEREP, Inc. (assay run by the contract laboratory)
Protocol: as §1
Supplementary file pbio.1001712.s003.tif: Figure S3 Dose-response relationships for compounds that bind nuclear hormone receptors. […]

PI3K p110α = molecular target: T9, PI3K p110α (Homo sapiens, UniProt P42336); assay: In vitro kinase activity assay, recombinant PI3KCA, phosphatidylinositol phosphorylation (CARNA); format: biochemical; conditions: marked with footnote d in Figure 2; 50 µM ATP, 5 h
T9 construct: full-length recombinant human PI3KCA; purchased CARNA Biosciences (Kobe, Japan)
Protocol: as §1, with “Radioligand binding assays for the oxytocin receptor, D4 dopamine receptor, cannabinoid CB2 receptor, and angiotensin type I and II receptors were performed as described previously, as were cell-based activity assays for mGluR 1a, 2, 4, 5, 6, and 8 [60]–[62].” left out
as §9

[4] = normalized to the maximum response of cells treated with 1 mM glutamate or 0.1 mM AP4 alone
[5] = percent difference in maximum activity of cells treated with glutamate or AP4 with vehicle versus B16
[6] = wild-type, serial 3-fold dilutions

In the case of `Cc1cc(C)c2c(N)c(C(=O)Nc3ccccn3)sc2n1` [B16], the Ki (mglur-8) is reported as 9800 nM, the “% agonism” value (MGLUR1a; [4]) is reported as -4% and the inhibition at 10 µM (MGLUR1a; [5]) is reported as 24%. For the same compound, the “% agonism” value (MGLUR2; [4]) was 0%, the inhibition at 10 µM (MGLUR2; [5]) was 12% and the “% agonism” value (MGLUR4; [4]) was -8%. The inhibition at 10 µM (MGLUR4; [5]) was 4%, the “% agonism” value (MGLUR5; 10 µM B16, normalized to the maximum response of cells treated with 1 mM glutamate or 0.1 mM AP4 alone) was -14% and the inhibition at 10 µM (MGLUR5; 10 µM B16, percent difference in maximum activity of cells treated with glutamate or AP4 with vehicle versus B16) was 11%. For the same compound, the Ki (MGLUR5; Figure 2) was greater than 30000 nM, the “% agonism” value (MGLUR6; [4]) was 13% and the inhibition at 10 µM (MGLUR6; [5]) was -17%. The “% agonism” value (MGLUR8; [4]) was -3%, the “% inhibition” value (MGLUR8; [5]) was 49% and the “increase in pharyngeal pumping” value (wild-type C. elegans) was 7%–12%. The “exposure time after which the feeding elevating effect was notable” value (“exposure time” for short) (wild-type C. elegans) was no more than 1 h, the “effect on the pharyngeal pumping rate” value (wild-type C. elegans; wild-type) was “increased” and the Pharmacological relationship [1] was “antagonist”. The “Nile Red staining” value (C. elegans) was “decreased”.
For `Cc1sc(NC(=O)c2ccccc2Br)c(C(N)=O)c1C` [D20], the Ki (flt-3 receptor (CD135); marked with footnote d in Figure 2, 100 µM ATP, 1 h) was 169 nM, the “increase in pharyngeal pumping” value (wild-type C. elegans) was 7%–12% and the “exposure time” value (wild-type C. elegans) was no more than 1 h. For the same compound, the EC50 (wild-type C. elegans; [6]) was 600 nM, the “effect on the pharyngeal pumping rate” value (wild-type C. elegans; wild-type) was “increased” and the Pharmacological relationship [2] was “antagonist”. The “Nile Red staining” value (C. elegans) was “decreased”.
For `COc1ccc(N(CC(=O)NCc2ccco2)S(=O)(=O)c2ccccc2)cc1Cl` [F15], the Ki (oxytocin receptor) was 1800 nM, the “increase in pharyngeal pumping” value (wild-type C. elegans) was 7%–12% and the “exposure time” value (wild-type C. elegans) was no more than 1 h. For the same compound, the EC50 (wild-type C. elegans; [6]) was 400 nM, the “effect on the pharyngeal pumping rate” value (wild-type C. elegans; wild-type) was “increased” and the Pharmacological relationship [3] was “antagonist”. For the same compound, the “Nile Red staining” value (C. elegans) was “decreased”.
`CC12C(=O)N(c3ccc(Cl)c(Cl)c3)C(=O)C1C1C=CC2C1` (centres unmarked) [G6] showed a Ki (androgen receptor) of 8.6 nM.
`O=C(CN1CCN(c2ccccc2)CC1)Nc1cc(C(F)(F)F)ccc1Cl` [G7] gave a Ki (dopamine receptor D4) of 1900 nM.
For `O=C(Nc1ccccc1C(=O)O)c1ccc(Br)c(S(=O)(=O)N2CCCCC2)c1` [I10], the Ki (PPAR-γ) was 1300 nM.
In the case of `Cc1nc(N2CCOCC2)c2oc3ccccc3c2n1` [J6], the Ki (PI3K p110α) is reported as 4600 nM.
For `CC1CCc2c(sc(NC(=O)c3cccs3)c2C(N)=O)C1` (centres unmarked) [K9], the “activity on the predicted mammalian target Flt-3 kinase in vitro” value (flt-3 receptor (CD135); Table S1 (not readable)) was “fail to modulate” and the “effect on feeding rate” value (wild-type C. elegans; [6]) was “dose-dependent increase”.
Work on `O=C1NC(=O)/C(=C\c2ccc(-c3cccc(Br)c3)o2)S1` [L10] yielded a Ki (PI3K p110α) of 2900 nM.
In the case of `CC[C@H](NC(=O)c1c(C)c(-c2ccccc2)nc2ccccc12)c1ccccc1` [SB222200, reference compound], the effect on feeding (wild-type C. elegans; wild-type, 200 nM) is reported as “increased feeding”.
